Values quoted from earlier work as cited in patent publication US20220273652A1, “PHARMACEUTICAL COMPOSITION COMPRISING HMG-COA REDUCTASE INHIBITORS AND FENOFIBRATE” (INTAS PHARMACEUTICALS LTD., priority 2019, published 2022).

Tested on: cytochrome P450
Details: human hepatocytes

Substrate for cytochrome P450-based metabolism: poor substrate
SMILES: CC(C)c1nc(N(C)S(C)(=O)=O)nc(-c2ccc(F)cc2)c1/C=C/[C@@H](O)C[C@@H](O)CC(=O)O [rosuvastatin, bis[(E)-7-[4(4-fluorophenyl)-6-isopropyl-2-[methyl(methylsulfonyl)amino]-pyrimidin-5-yl](3R,5S)-3,5dihydroxyhept-6-enoic acid]]
